Data from patent publication US11926640B2, “Prodrugs of glutamine analogs” (THE JOHNS HOPKINS UNIVERSITY, priority 2015, dated 2024).
“Also recorded” adds a separate entry of the source. Read-outs that look alike come from different tables or passages of the source. Blank lines part the entries; values can stand above or below the compound they belong to.

Tests used:
[1] = tolerability of daily treatment with DON or 25 in mice
[2] = 5-day i.v. toxicity comparison of DON and 38 in pigs; format: in vivo
[3] = Cmax, tumor to gut ratio and GI toxicity of 25 vs DON at equimolar doses in mice; conditions: 0.8 mg/kg (equivalent) daily for 5 days
[4] = test system: U87 human glioma cells; test: U87 flank xenograft mouse model of GBM; format: in vivo
Method: Mice Efficacy Studies. All mouse efficacy studies were conducted according to protocol #MO13M69 approved by the Animal Care and Use Committee at Johns Hopkins University. Female athymic (RH-Foxn1nu mice) mice between 25 and 30 g were obtained (Harlan Sprague Dawley Inc. Indianapolis. Indiana), and maintained on a 12 hour light-dark cycle with ad libitum access to food and water. U87 human glioma cells were injected s.c. (5×10^6 cells in […] of PBS) in four separate locations on the flanks of each mouse. When tumors grew to a mean volume of around 200 mm^3, mice were randomized into either vehicle (HEPES-buffered saline, i.p.) or DON (1; 0.8 mg/kg, i.p.). In one cohort, mice were administered a single dose of the appropriate solution two hours after which glutamine levels were quantified in the tumor as described previously (Le et al., 2012). In brief, tumors were harvested, snap frozen, and homogenized in liquid N, then subjected to metabolite extraction using methanol and DI water. Quantification was performed using Agilent 6520 Quadrupole-Time-of-Flight (Q-TOF) mass spectrometer with Agilent 1290 HPLC and using Agilent Mass Hunter and Agilent Qualitative and Quantitative Analysis Software packages. Glutamine content was averaged by group for each individual tumor (n=3-4/group), depicted as relative intensity, and analyzed by one-tailed t test. In a second cohort, efficacy experiments were conducted. Mice were injected once daily for six days; tumor volumes were measured using digital calipers and calculated according to the formula: [volume=(largest tumor dimension)×(smallest tumor dimension)^2×0.52] at 2, 4, and 6 days after the onset of treatment. Each individual tumor (n=8-10/group) was normalized to its pretreatment volume, averaged and analyzed by repeated measures two-way analysis of variance (ANOVA). If significant, a Bonferroni post hoc test was subsequently applied. Significance was defined as p<0.05.

[5] = test system: EL4 mouse lymphoma; test: EL4 mouse lymphoma model; conditions: in vivo
[6] = test system: melanoma; test: melanoma growth model; conditions: in vivo
[7] = plasma and CSF pharmacokinetics of DON in swine after i.v. infusion; format: in vivo, Göttingen×Yucutan miniature swine; conditions: 60 min post-administration
Method: Compound: Compound 47 was dissolved in a sterile saline containing 5% ethanol and 5% Tween 80 on the date of administration.
Swine: Swine studies were conducted under a protocol approved by the Johns Hopkins Animal Care and Use Committee. Adult, female Göttingen×Yucutan miniature swine (Massachusetts General Hospital, MA) were housed in Johns Hopkins University facilities accredited by the Association for Assessment and Accreditation of Laboratory Animal Care International in compliance with the Animal Welfare Act, Animal Welfare Regulations, and the Public Health Service Policy on the Humane Care and Use of Laboratory Animals. Animals were maintained on a 14-h light and 10-h dark schedule, provided ad libitum water and a commercial miniswine diet (Teklad, Madison, WI) with environmental enrichment (fruit/vegetables) twice daily.

[8] = plasma and CSF pharmacokinetics of DON in monkeys after i.v. DON or 14b; format: in vivo, pigtail macaques; conditions: Monkey, FIG. 58B
Method: Pharmacokinetic Studies in Non-human primates. All monkey studies were conducted according to protocol (#PR15M298) approved by the Animal Care and Use Committee at Johns Hopkins University. Two female pigtail monkeys (approximately 3.5 kg, non-drug naive) were adjacently housed in stainless steel cages on a social interaction rack (contains 4 cages, each 32.5″ wide×28″ deep×32″ high) maintaining temperature of 64-84° F., humidity of 30-70% with alternating 14-10 hour light/dark cycle as per the USDA Animal Welfare Act (9 CFR. Parts 1, 2, and 3). Food was provided daily in amounts appropriate for the size and age of the animals and RO purified water provided ad libitum through an in-cage lixit valve. Food enrichment was provided Monday through Friday. Prior to drug administration, macaques were sedated with ketamine given as an intramuscular injection prior to test article administration. […]
Bioanalysis of DON. […] The mean predicted relative standard deviation for back calculated concentrations of the standards and QC's for all analytes were within the range of 85 to 115%, except for the lowest concentration which was within the range of 80 to 120% with an overall accuracy and precision of 6.7% and 6.6%, respectively.
Pharmacokinetic Analysis. […] Area under the curve (AUC) was calculated by log-linear trapezoidal rule to the end of sample collection (AUClast). […]

[9] = in vitro metabolic stability in human plasma
[10] = in vitro metabolic stability in pig plasma; conditions: 30 min and 60 min
[11] = in vitro metabolic stability in mouse plasma
[12] = in vitro metabolic stability in dog plasma; format: in vitro ADME; conditions: 30 min and 60 min
Method: Percentage remaining was calculated in the following manner.

[13] = in vitro metabolic stability in monkey plasma
[14] = test system: CT26 colon cancer; test: CT26 tumor model; format: in vivo, mice; conditions: single agent
[15] = pig microsomes
[16] = human microsomes
[17] = test system: colon cancer cells; test: rechallenge of compound 25 treated mice with colon cancer cells; format: in vivo; conditions: mice previously treated with single agent
[18] = mouse, in vivo
[19] = mouse, in vivo; remark: listed apart in the source
[20] = test system: MC38 colon cancer; test: MC38 tumor model; format: in vivo, mice; conditions: single agent
[21] = test system: 4T1 tumor cells; test: 4T1 breast cancer model; format: in vivo, BALB/c mice; conditions: single agent, about 1 mg/kg daily
Method: 4T1 tumor cells (0.1 million) were injected into the mammary fat pads of 8-week-old female BALB/c mice. Mice received vehicle (PBS) or 1 mg/kg compound 25 daily from day 5 to day 22. Photos were taken on day 30 after tumor inoculation (FIG. 57A). Tumor volume was measured 2-3 times weekly until WT mice were sacrificed (when size reached to 20 mm length or necrosis occurred). Day 0: 100K 4T1 cells s.c. in 4th mammary pad. Day 5-22: Daily compound 25.
4T1-Luc tumor cells (0.1 million) were injected into the mammary fat pads of 8-week-old female BALB/c mice. Mice received vehicle (PBS) or 1 mg/kg compound 25 daily from day 7. Anti-PD1 (5 mg/Kg) was administered on day 5, 8, and 12. Mice carrying 4T1-luc tumors are injected with Luciferin to measure luminescence from the tumor. IVIS imaging were taken on day 13.
4T1-Luc tumor cells (0.1 million) were injected into the mammary fat pads of 8-week-old female BALB/c mice. Mice received vehicle (PBS) or 1 mg/kg compound 25 daily from day 7 to day 16. Anti-PD1 (5 mg/Kg) was administered on day 5, 8, 12 and 17. Tumor volume was measured 2-3 times weekly until tumors were evaluated for tumor infiltrating cells on day 21. Tumor weights were measured on day 21. On day 21, the PD1 group tumor size looks like it was reduced, however, the result was not due to a tumor size reduction, but rather because one of the large tumor mice died.

SMILES: [N-]=[N+]=CC(=O)CC[C@H](N)C(=O)O [DON, 6-diazo-5-oxo-L-norleucine]
blood counts (in words) ([1]; daily high dose treatment): pan-cytopenia
body weight (in words) ([1]; daily high dose treatment): weight loss
renal and liver function (in words) ([1]; high dose): unaffected
macroscopic stomach toxicity (in words) ([2]; 5 days of dosing): more severe stomach toxicity
adverse clinical signs (in words) ([2]; DON 1.6 mg/kg vs 38 1.5 mg/kg, i.v. 2 h/day for 5 days, equivalent PBMC exposure): more adverse clinical signs; also recorded: more adverse clinical effects
GI toxicity, jejunum-ileum histology (in words) [3]: significant inflammation
flank GBM tumor size (in words) ([4]; 0.8 mg/kg, i.p, q.d. days 1-6): dramatic reduction in tumor size
glutamine metabolism in tumor (endogenous glutamine accumulation) ([4]; 0.8 mg/kg, i.p., 2 hours post-administration, flank GBM tumors): inhibited glutamine metabolism
signs of toxicity (in words) ([4]; mice receiving DON 0.8 mg/kg, i.p, q.d.): significant signs of toxicity
antitumor efficacy against lymphoma (in words) [5]: cure lymphoma; also recorded: markedly inhibits lymphoma growth; also recorded: efficacious
effect on melanoma growth (in words) [6]: modest effect on inhibiting melanoma growth

CSF:plasma ratio of DON (in words) [8]: enhanced CSF:plasma ratio
stability in human plasma (in words) ([9]; 30 min and 60 min): highly stable
PLASMA STABILITY Human ([9]; prodrug remaining within the 60 min incubation time, human plasma): 91%
stability in pig plasma (in words) [10]: highly stable
stability in mouse plasma (in words) ([11]; 30 min and 60 min): rapidly metabolized
PLASMA STABILITY Mouse ([11]; prodrug remaining within the 60 min incubation time, mouse plasma): 0%
stability in dog plasma (in words) [12]: highly stable
stability in monkey plasma (in words) ([13]; 30 min and 60 min): highly stable
PLASMA STABILITY Monkey ([13]; prodrug remaining within the 60 min incubation time, monkey plasma): 61%
SMILES: CC(C)OC(=O)[C@H](CCC(=O)C=[N+]=[N-])NC(=O)OC(C)OC(=O)C(C)(C)C (single isomer, unassigned) [Compound 14b, 1-Methylethyl 6-(1λ^5-diazynylidene)-N-({1-[(2,2-dimethylpropanoyl)oxy]ethoxy}carbonyl)-5-oxo-L-norleucinate]
CSF delivery of DON (in words) [7]: substantially higher amounts of DON to the CSF; also recorded: enhanced CSF delivery of DON
CSF:plasma ratio of DON (in words) [7]: increased CSF-to-plasma ratios; also recorded: enhanced CSF:plasma ratio

SMILES: CCOC(=O)[C@H](CCC(=O)C=[N+]=[N-])NC(=O)[C@@H](N)CC(C)C [Compound 25, Ethyl 2-(2-amino-4-methylpentanamido)-6-diazo-5-oxohexanoate]
antitumor efficacy in CT26 tumor model (in words) [14]: superior to CB-839; also recorded: robust response and improved overall survival
liver microsomal stability (in words) [15]: moderate-high stability
liver microsomal stability (in words) [16]: moderate-high stability
colon cancer cell proliferation upon rechallenge (in words) [17]: prevents colon cancer cell proliferation upon rechallenge
blood counts (in words) [18]: some leukopenia
body weight (in words) [18]: No weight loss
bone marrow suppression (in words) [18]: no bone marrow suppression
renal and liver function (in words) [18]: unaffected
Cmax vs DON (in words) [19]: reduces Cmax
tumor to gut ratio vs DON (in words) [19]: enhances tumor to gut ratio
GI toxicity, jejunum-ileum histology (in words) [3]: causes less GI toxicity
antitumor efficacy against lymphoma (in words) [5]: cure lymphoma; also recorded: efficacious
antitumor efficacy in MC38 tumor model (in words) [20]: complete and durable response; also recorded: inhibits colon cell proliferation and extends the survival of mice; also recorded: efficacious; also recorded: more efficacious than oxaliplatin
antitumor efficacy in 4T1 breast cancer model (in words) [21]: superior to CB-839; also recorded: robust response and improved overall survival; also recorded: inhibited the growth of mammary carcinoma tumor cells; also recorded: inhibits tumor growth
